We go through 1 molecule from US12503453B2, “USP7 inhibition” (Dana-Farber Cancer Institute, Inc., priority 2018, dated 2025).

The target in series [1] is full length USP7 (Homo sapiens (Human), UniProt Q93009). Nature of the series: Ub-AMC enzymatic assay with full-length USP7. It is filed as biochemical. As to conditions: full-length USP7, Ub-AMC. Here is the method: Both constructs were overexpressed in E. coli BL21 (DE3). Cells were grown at 37° C. to an OD of 0.9, cooled to 16° C., induced with 500 μM isopropyl-1-thio-D-galactopyranoside (IPTG), incubated overnight at 16° C., collected by centrifugation, and stored at −80° C. Cell pellets were sonicated in lysis buffer (25 mM Tris pH 8, 1 M NaCl, and 10 mM BME) supplemented with 10 μg/ml phenylmethanesulfonylfluoride (PMSF) and the resulting lysate was centrifuged at 30,000×g for 40 min. Ni-NTA beads (Qiagen) were mixed with lysate supernatant for 2 hours, and washed with lysis buffer supplemented with 25 mM imidazole. The bound protein was eluted with lysis buffer supplemented with 300 mM imidazole. The sample was then concentrated to 1 ml (30 kDa concentrator; Amicon Ultra, Millipore), and run on a Superdex 200 (GE healthcare) in buffer containing 25 mM HEPES pH 7.5, 200 mM NaCl, and 1 mM DTT. Fractions were pooled, concentrated and frozen at −80° C.
(§1) Full length USP7 was tested for its activity in Ubiquitin-AMC assay in presence or absence of inhibitors. USP7 (5 nM) was pre-incubated for 6 hours at room temperature with different concentrations of inhibitors or DMSO as a control in 50 mM HEPES pH 7.5, 0.5 mM EDTA, 11 μM ovalbumin, and 5 mM DTT. Ubiquitin-AMC (Boston Biochem) was then added to a final concentration of 500 nM. The initial rate of the reaction was measured by collecting fluorescence data at one minute intervals over 30-minute period using a Clariostar fluorescence plate reader at excitation and emission wavelength of 345 and 445 nm respectively. The calculated initial rate values were plotted against inhibitor concentrations to determine IC50s. All the experimental data were plotted using Prism GraphPad. All assays for each compound were performed at least twice for each compound.

Series [2] relates to MDM2-p53 signaling axis in MCF7 cells. Nature of the series: Whole cell lysate Western blots of MCF7 cells (MDM2-p53 signaling axis). It is filed as cell-based. The settings on record: wild-type TP53. (In general: Immunoblotting shows a protein as a band on a membrane.)
Series [3] relates to MCF7 cells. Nature of the series: Cell cycle analysis by propidium iodide staining. In kind it is cell-based. As to conditions: 1 μM, 24 hours. The procedure: For propidium iodide (PI) staining, treated cells (˜1 million per condition) were washed with cold PBS, then fixed in 80% ethanol overnight at −20° C. After fixing, cells were pelleted, washed with PBS, and reconstituted in 500 μL FxCycle PI/RNAse A staining solution (Thermo Fisher). Cells were stored overnight at 4° C. and analyzed using a BD Fortessa flow cytometer.

Series [4] addresses USP7-Q351S (Homo sapiens (Human), UniProt Q93009, Q351S). Nature of the series: Ub-AMC assay with mutant USP7-Q351S. The settings on record: 6-hr pre-incubation. It is filed as biochemical. Here is the method:
as §1

Series [5] concerns 41 purified recombinant DUBs. Nature of the series: In vitro DUB profiling, panel of 41 recombinant DUBs (Ub-Rho). It is filed as biochemical. As to conditions: 1 μM, 15 minutes pre-incubation. Here is the method:
Compounds were screened using the Ubiquigent Drug Profiler SPT system. Each of 41 purified DUBs was incubated with compound for 15 minutes, then ubiquitin rhodamine 110 (Ub-Rho) was added and percent inhibition determined based on fluorescence relative to a DMSO control.

Series [6] relates to Ewing sarcoma cell lines, TP53 WT and mutant. Nature of the series: Cell proliferation (CellTiter-Glo), panel of Ewing sarcoma cell lines. As to conditions: WT and TP53-KO Ewing Sarcoma cells. In kind it is cell-based. Here is the method:
(§2) Cells were plated in 384-well culture-treated plates and allowed to settle overnight. After drug treatment and appropriate incubation time, cell viability was assessed using the CellTiter-Glo Luminescent Cell Viability Assay (Promega). Luminescence was read on a Fluostar Omega Reader (BMG Labtech).

Series [7] deals with TC32 cells. Nature of the series: Cell proliferation (CellTiter-Glo), TC32. It is filed as cell-based. As to conditions: TP53 wild-type, 3 days. Here is the method: as §2
A general note: ATP-based viability assays read luminescence as a measure of living cells.

For series [8], the system named is TC138 cells. Nature of the series: Cell proliferation (CellTiter-Glo), TC138. It is filed as cell-based. As to conditions: TP53 wild-type, 3 days. Here is the method: as §2
The test system of series [9] is A673 cells. Nature of the series: Cell proliferation (CellTiter-Glo), A673. In kind it is cell-based. The settings on record: TP53-mutant, 3 days. Here is the method:
as §2

Series [10] has as its system TC71 cells. Nature of the series: Cell proliferation (CellTiter-Glo), TC71. It is filed as cell-based. As to conditions: TP53-mutant, 3 days. Here is the method:
as §2

Series [11] deals with TC32 cells expressing sgTP53. Nature of the series: Cell proliferation of TC32 cells with TP53 knockout. The settings on record: 3 days. In kind it is cell-based. The procedure:
as §2
Lentivirus was produced by transfecting HEK-293T cells with the pLentiV2 vector (Addgene plasmid #52961) and the packaging plasmids pCMV8.9 and pCMV-VSVG according to the FuGENE 6 (Roche) protocol. For lentiviral transduction, Ewing sarcoma cells were incubated with 2 mL of virus and 8 μg/mL of polybrene (Sigma-Aldrich). Cells were selected in puromycin (Sigma-Aldrich) 48 hours after infection for single knockout experiments.
sgRNAs were designed using the Broad Institute's sgRNA designer tool. The following sequences were used as control or to target the respective genes: […]

Series [12] deals with MCF7 cells. Nature of the series: Transcriptome profiling, 3' Digital Gene Expression RNA-seq. In kind it is cell-based. As to conditions: 24 hours, low or high doses. From the text:
Overall, transcripts were detected for 7000-10,000 genes (7276 genes detected across all conditions).
The same report had also identified a set of dimerization partner, Retinoblastoma-like, E2F and multi-vulval class B (DREAM) complex target genes by combining p53 repression data (generated in part with Nutlin-3A-treated MCF7 cells) with cell cycle expression and DREAM component binding.

Sequence of full length USP7 (Q93009 whole entry): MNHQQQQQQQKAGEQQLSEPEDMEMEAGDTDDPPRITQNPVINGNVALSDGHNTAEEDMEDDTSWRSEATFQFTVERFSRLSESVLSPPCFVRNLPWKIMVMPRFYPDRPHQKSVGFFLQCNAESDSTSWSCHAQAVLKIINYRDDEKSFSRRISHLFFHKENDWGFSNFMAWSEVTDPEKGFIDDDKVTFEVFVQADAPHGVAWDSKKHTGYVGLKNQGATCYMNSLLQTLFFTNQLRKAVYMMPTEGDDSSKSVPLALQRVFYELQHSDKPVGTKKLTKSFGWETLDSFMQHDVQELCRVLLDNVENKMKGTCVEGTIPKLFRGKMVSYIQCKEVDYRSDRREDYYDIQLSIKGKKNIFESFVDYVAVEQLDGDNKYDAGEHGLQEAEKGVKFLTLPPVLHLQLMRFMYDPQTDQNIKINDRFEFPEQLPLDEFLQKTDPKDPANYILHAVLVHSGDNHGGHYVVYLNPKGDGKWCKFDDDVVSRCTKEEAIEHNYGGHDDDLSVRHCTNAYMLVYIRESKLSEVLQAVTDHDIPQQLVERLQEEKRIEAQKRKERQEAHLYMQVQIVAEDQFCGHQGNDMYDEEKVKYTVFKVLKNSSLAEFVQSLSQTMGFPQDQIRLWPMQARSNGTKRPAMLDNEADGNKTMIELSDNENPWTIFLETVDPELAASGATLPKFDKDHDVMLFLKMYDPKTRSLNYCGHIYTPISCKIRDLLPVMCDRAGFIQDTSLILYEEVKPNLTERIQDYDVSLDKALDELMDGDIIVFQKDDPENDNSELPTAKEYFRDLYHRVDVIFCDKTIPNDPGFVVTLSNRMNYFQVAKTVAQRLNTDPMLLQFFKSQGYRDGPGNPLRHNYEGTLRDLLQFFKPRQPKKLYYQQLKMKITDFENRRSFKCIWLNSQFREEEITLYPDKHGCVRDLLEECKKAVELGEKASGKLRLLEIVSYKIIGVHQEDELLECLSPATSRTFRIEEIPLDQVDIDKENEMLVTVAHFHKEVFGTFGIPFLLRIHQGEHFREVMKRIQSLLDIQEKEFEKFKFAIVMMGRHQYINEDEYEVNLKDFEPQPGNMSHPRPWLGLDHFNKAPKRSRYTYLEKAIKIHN
Sequence of USP7-Q351S (Q93009 whole entry Q351S): as the sequence (Q93009 whole entry) above, with Q351S counted along it

Consider `CN1CCN(CCC(=O)Nc2ccc3c(=O)n(CC4(O)CCN(C(=O)[C@@H](CCCNC(=O)c5ccc6c(Cl)c7c(nc6c5)CCCC7)Cc5ccccc5)CC4)cnc3c2)CC1` [compound 6, (S)—N-(4-benzyl-5-(4-hydroxy-4-((7-(3-(4-methylpiperazin-1-yl)propanamido)-4-oxoquinazolin-3(4H)-yl)methyl)piperidin-1-yl)-5-oxopentyl)-9-chloro-5,6,7,8-tetrahydroacridine-3-carboxamide], for which, in series [1], the “IC50 against USP7 (range in words)” value is “subnanomolar range”. Besides, the MDM2 protein level entry in series [2] was “induced rapid degradation of MDM2 within 2 hours”. Moreover, the “p53 and p21 protein levels” value in series [2] was “increases in p53 and downstream p21 protein levels”. Besides, the cell cycle effect result in series [3] was “complete G1 arrest”. Moreover, the “loss in potency compared to wild-type enzyme” value in series [4] was 100 fold. Further, the “activity against other DUBs of the panel” value in series [5] was “did not exhibit significant activity against any other DUBs”. In addition, the “inhibition of USP7 enzymatic activity” value in [5] was “completely inhibited USP7 enzymatic activity”. Besides, in series [6], the “TP53 dependence of cell killing” value is reported as “highly TP53-dependent cell killing”. In addition, the growth inhibition result was “potently inhibited” in series [7], “potently inhibited” in [8], “neither TP53-mutant A673 or TC71 was substantially inhibited” in series [9] and “neither TP53-mutant A673 or TC71 was substantially inhibited” in series [10]. Besides, the “cytotoxic effect after TP53 knockout” value in [11] is on record as “rescued by TP53 knockout”. The transcriptional profile result in series [12] was “strongly correlated transcriptional profiles”.
